Earlier results on 2 molecules are cited in patent publication US20050169894A1, “Compositions and methods for ex vivo preservation of blood vessels for vascular grafts using inhibitors of Type III and/or Type IV phosphodiesterases” (priority 2003, published 2005).

One series deals with endothelial cells. Particulars: stated as known; about 4 mM.
Series [1] has as its system Type IV phosphodiesterase. Particulars: at high concentrations; Lugnier and Komas, 1993.
For another series, the target named is Type V phosphodiesterase (Homo sapiens, UniProt O76074). Particulars: at high concentrations; Lugnier and Komas, 1993.

Consider `CCCC(=O)Nc1ncnc2c1ncn2[C@@H]1O[C@@H]2COP(=O)(O)O[C@H]2[C@H]1OC(=O)CCC` [db cAMP, dibutyryl adenosine 3′,5′-cyclic monophosphate], for which the “concentration toxic to endothelial cells” value in the series on endothelial cells was “higher than 4 mM”.

Turning to `Cc1[nH]c(=O)c(C#N)cc1-c1ccncc1` [milrinone, Milrinone], the “inhibition of Type IV phosphodiesterase activity” value in series [1] is recorded as “inhibits”. For the same molecule, the “inhibition of Type V phosphodiesterase activity” value at Type V phosphodiesterase is “inhibits”.
